# Values joined by “and” are separate entries in the source; they are usually repeats but may differ in a detail not shown here. Equal values may be shown once.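 Tested at 5 concentrations; 48 h exposure; 96-well plates; endpoints linearly interpolated, else capped at highest concentration. Abbreviation: GI50, concentration required for 50% inhibition of growth. TGI is the concentration that stops growth completely.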
# What was measured:
# Test in all cases: growth of human tumour cells (NCI), 48 h
# A498 renal = test system: A498 renal
# HCT-116 colon = test system: HCT-116 colon
# HOP-62 NSCLC = test system: HOP-62 NSCLC
# HOP-92 NSCLC = test system: HOP-92 NSCLC
# IGROV1 ovarian = test system: IGROV1 ovarian
# MALME-3M melanoma = test system: MALME-3M melanoma
# SF-268 CNS = test system: SF-268 CNS
# UACC-257 melanoma = test system: UACC-257 melanoma
# DU-145 prostate = test system: DU-145 prostate
# SK-OV-3 ovarian = test system: SK-OV-3 ovarian
SMILES,GI50 (A498 renal) [nM],TGI (A498 renal) [µM],GI50 (HCT-116 colon) [nM],TGI (HCT-116 colon),GI50 (HOP-62 NSCLC) [µM],TGI (HOP-62 NSCLC) [µM],GI50 (HOP-92 NSCLC) [nM],TGI (HOP-92 NSCLC),GI50 (IGROV1 ovarian) [µM],TGI (IGROV1 ovarian) [µM],GI50 (MALME-3M melanoma) [µM],TGI (MALME-3M melanoma) [µM],GI50 (SF-268 CNS) [µM],TGI (SF-268 CNS) [µM],GI50 (UACC-257 melanoma) [µM],TGI (UACC-257 melanoma) [µM],TGI (DU-145 prostate) [µM],TGI (SK-OV-3 ovarian) [µM]
FC(F)(F)c1ccc(-c2nc(-c3nc4cc(Cl)c(Cl)cc4[nH]3)c3ccccn23)cc1,4580,79.1,2920,> 100 µM,3.04,16.3,2970,28.7 µM,16.1,> 100,3.56,> 100,4.19,> 100,> 100,> 100,,
CC1(C)O[C@H]2Cn3c(c(C#N)c4ccccc43)[C@H]2O1,,,,> 100 µM,,> 100,,> 100 µM,,> 100,,> 100,,> 100,,,> 100,> 100
CCC1(O)CC(OC2CC(N(C)C)C(OC3CC4OC5CC(=O)C(C)OC5OC4C(C)O3)C(C)O2)c2c(cc3c(c2O)C(=O)c2c(O)ccc(O)c2C3=O)C1C(=O)OC (stereo not drawn),4.59,0.016,,0.0238 µM and 0.126 µM and 0.0875 µM,,,,0.0828 µM and 0.0644 µM,,,,,,,,,,
COc1cc(/C=C2/SC(c3ccccc3)N(c3ccc(NC(C)=O)cc3)C2=O)cc(OC)c1OC (stereo not drawn),,> 100,,> 100 µM,,> 100,,> 100 µM,,,,> 100,,> 100,,> 100,> 100,> 100
Clc1ccc(-c2ccc(-c3nnc(CCc4nnc(-c5ccc(-c6ccc(Cl)cc6)o5)o4)o3)o2)cc1,,> 92.2,,> 100 µM,,> 100,,> 64.1 µM,,> 100,,,,> 100,,> 100,> 100,> 90.4
Cc1ccc(S(=O)(=O)c2scc(-c3ccccc3)c2C)cc1,,,,> 100 µM,,> 100,,> 100 µM,,> 100,,> 100,,> 100,,> 100,> 100,> 100
COC(=O)C(=O)C(C(=O)Nc1cccc(C)c1C)C1Sc2ccccc2NC1=O (stereo not drawn),,> 25,,> 25 µM,,> 25,,> 25 µM,,> 25,,24,,> 25,,> 25,,> 25
CCC(C)[C@@H](NCc1ccccc1)[C@H](OCc1ccccc1)[C@@H]1COC(C)(C)O1 (stereo partly drawn),,,,29.2 µM,,> 100,,31.4 µM,,37.4,,45.8,,68.6,,38.1,68,> 100
CCOC(=O)c1cnc(-n2[nH]c(C)c(CCO)c2=O)[nH]c1=O,,,,> 100 µM,,> 100,,> 100 µM,,> 100,,> 100,,> 100,,> 100,> 100,> 100
O=C(Nc1cccc2ccccc12)Oc1ccccc1C1CCCCC1,,31.5,,32.2 µM,,33.1,,30.7 µM,,51.2,,35.1,,98.9,,29.8,,67.7
O=c1cc(CNC2CCCC2)[nH]c(=O)[nH]1,,> 100,,> 100 µM,,> 100,,,,> 100,,> 100,,> 100,,> 100,> 100,> 100
Nc1nc(N)c2ncn(CC3CCC(CO)C3)c2n1 (stereo not drawn),,> 100,,> 100 µM,,> 100,,> 100 µM,,,,,,> 100,,> 100,> 100,> 100
Cc1[nH]c2ncn(/N=C/c3ccccc3O)c(=N)c2c1Cc1ccccc1,,> 100,,> 100 µM,,> 100,,> 100 µM,,> 100,,,,> 100,,> 100,> 100,> 100
CNC(=O)c1ccccc1-[s+]1c2ccccc2c(=O)n1C (stereo not drawn),,> 100,,> 100 µM,,> 100,,> 100 µM,,> 100,,> 100,,> 100,,> 100,> 100,
O=S(=O)(Oc1ccc2oc3ccccc3c2c1-c1c(OS(=O)(=O)C(F)(F)F)ccc2oc3ccccc3c12)C(F)(F)F,,> 100,,> 100 µM,,> 100,,> 100 µM,,> 100,,,,> 100,,> 100,> 100,> 100
COc1cccc2c1OC1c3ccccc3OCC1C2 (stereo not drawn),,> 100,,> 100 µM,,> 100,,,,> 100,,> 100,,> 100,,> 100,> 100,> 100
c1csc(-c2ccc(-c3ccc(-c4ccc(-c5cccs5)s4)s3)s2)c1,,> 100,,> 100 µM,,> 100,,> 100 µM,,> 100,,,,> 100,,> 100,> 100,> 100
COC(=O)c1cn(CCCC(=O)O)nn1,,,,> 100 µM,,> 100,,> 100 µM,,> 100,,> 100,,> 100,,> 100,> 100,
CCOC(=O)CCCn1nnc(C(=O)OCC)c1C(=O)OCC,,,,> 100 µM,,> 100,,> 100 µM,,> 100,,> 100,,> 100,,> 100,> 100,
CC(=O)NC1C(OCc2ccccc2)OC(CO)C(O)C1OCC(=O)NC(C)C(=O)NC(CCC(=O)NCCCCNc1ccc([N+](=O)[O-])c2[nH]c3ccccc3c(=O)c12)C(N)=O (stereo not drawn),,> 100,,> 100 µM,,> 100,,> 100 µM,,> 100,,> 100,,> 100,,,> 100,> 100
O=C1N[C@H]2c3c(Cl)sc(Cl)c3/C(=N/O)[C@H]2O1,,> 100,,> 100 µM,,> 100,,,,> 100,,> 100,,> 100,,> 100,> 100,> 100
O=C(O)CCCl,,,,> 5000 µM,,> 5000,,> 5000 µM,,> 5000,,4970,,> 5000,,> 5000,,> 5000
Nc1nc2c(=O)c3ccccc3sc2s1,,> 100,,> 100 µM,,> 100,,> 100 µM,,> 100,,,,> 100,,> 100,> 100,

# Reference: PubChem BioAssay (NCI)
